Earlier results, collected in patent US20130237424A1 (Cosmo Oil Co., LTD., priority 2010, published 2013).

Tested on: plants
Settings: given with being dissolved in a solution

NCC(=O)CCC(=O)O [5-aminolevulinic acid]
duration of growth promoting effect: about 2 weeks
